From US20110206685A1, “SCREENING ASSAYS FOR INHIBITORS OF A STAPHYLOCOCCUS AUREUS SIDEROPHORE” (priority 2004, published 2011)

Tests used:
Assay type in all cases: cell-based, Staphylococcus aureus
[1] = test system: sbnD mutant and wild type strains; assay: MIC comparison of sbnD mutant and wild type strains; details: sbnD::Km mutant versus wild type
Text: SbnD encodes a putative multi-drug efflux pump. A mutation in sbnD was created by insertion of a Km cassette.

[2] = test system: S. aureus RN6390; assay: Siderophore plate bioassay (promotion of iron-restricted growth); details: HPLC-isolated peak from culture supernatant of RN6390 fur::Km; TMS medium with 20 μM EDDHA
Method: The ability of siderophores to promote the iron-restricted growth of S. aureus was assessed using siderophore plate bioassays, performed as previously described (Sebulsky et al., (2000) J. Bacteriol. 182:4394-4400). Briefly, S. aureus RN6390 was incorporated into solid TMS medium (1.4×10^4 cells/ml) containing 20 μM EDDHA. The ability of purified siderophores to promote growth of S. aureus was assessed after incubation of plates for 36 hours at 37° C.

[3] = test system: sbnB::Tet mutant; details: iron-restricted media / serum
Text: SbnB encodes a putative ornithine cyclodeaminase and may work in concert with SbnA to produce L-2,3-diaminopropionic acid, a likely precursor for staphylobactin. Ornithine cyclodeaminases mediate the deamination of ornithine and cyclization to proline and depended on NAD+. A mutation in sbnB was created by insertion of a Tet cassette. […] While proline is unlikely to be a siderophore precursor, ammonia may be a desired product for staphylobactin biosynthesis. […] Further, we observed in a mouse kidney abscess experiment, sbnB deficient strains were compromised for virulence (data not shown, n=7 mice).

| Compound | difference in MIC (minimum inhibitory concentration) values between sbnD mutant and wild type strains [1] | rescue of the iron-restricted growth phenotype of the sbnB mutant by added compound [3] | other results |
| --- | --- | --- | --- |
| CCn1cc(C(=O)O)c(=O)c2cc(F)c(N3CCNCC3)cc21 [norfloxacin] | No difference |  |  |
| staphylobactin |  |  | biological activity in siderophore plate bioassays (promotion of iron-restricted growth of S. aureus) [2]: retained biological activity |
| O=C(O)[C@@H]1CCCN1 [proline] |  | does not bypass the sbnB mutation |  |
| NCC(N)C(=O)O (centres unmarked) [diaminopropionic acid] |  | can be overcome |  |
| CCn1cc(C(=O)O)c(=O)c2ccc(C)nc21 [nalidixic acid] | No difference |  |  |
